Reference: ChEMBL document CHEMBL5357085, “Synthesis and Evaluation of Natural and Unnatural Tetrahydrocannabiorcol for Its Potential Use in Neuropathologies” (J Nat Prod, 2024)
Activity calls are given as the source filed them. The calls are words filed in the database; no cut-off is given here.

What was measured:
[1] = tested on: SH-SY5Y; assay: Neuroprotective activity against corticosterone-induced cytotoxicity in human SH-SY5Y cells assessed as BDNF concentration at 10 uM preincubated with compound for 2 hrs followed by corticosterone addition and measured 2 hrs after replacement with fresh media by ELISA (reference value: 5 pg/ml); type: functional
[2] = tested on: SH-SY5Y; assay: Neuroprotective activity against corticosterone-induced cytotoxicity in human SH-SY5Y cells assessed as rescue of cell viability at 10 uM preincubated with compound for 96 hrs followed by corticosterone stimulation and measured after 48 hrs by MTT assay relative to control; type: functional; conditions: time 144 hrs
[3] = tested on: SH-SY5Y; assay: Neuroprotective activity against corticosterone-induced cytotoxicity in human SH-SY5Y cells assessed as rescue of cell viability at 10 uM preincubated with compound for 72 hrs followed by corticosterone stimulation and measured after 48 hrs by MTT assay relative to control; type: functional; conditions: time 120 hrs
[4] = tested on: SH-SY5Y; assay: Cytotoxicity against human SH-SY5Y cells assessed as reduction in cell viability at 10 uM measured at 24 to 96 hrs by MTT assay; type: toxicity, cell-based; conditions: time 24-96 hrs
[5] = tested on: SH-SY5Y; assay: Neuroprotective activity against corticosterone-induced cytotoxicity in human SH-SY5Y cells assessed as rescue of cell viability at 5 uM preincubated with compound for 24 hrs followed by corticosterone stimulation and measured after 48 hrs by MTT assay (reference value: 41%); type: functional; conditions: time 72 hrs
[6] = tested on: SH-SY5Y; assay: Neuroprotective activity against corticosterone-induced cytotoxicity in human SH-SY5Y cells assessed as rescue of cell viability at 10 uM preincubated with compound for 48 hrs followed by corticosterone stimulation and measured after 48 hrs by MTT assay relative to control; type: functional; conditions: time 96 hrs
[7] = tested on: SH-SY5Y; assay: Neuroprotective activity against corticosterone-induced cytotoxicity in human SH-SY5Y cells assessed as […] at 10 uM preincubated with compound for 2 hrs followed by corticosterone addition and measured 2 hrs after replacement with fresh media by ELISA; type: functional
[8] = tested on: SH-SY5Y; assay: Cytotoxicity against human SH-SY5Y cells assessed as reduction in cell viability at 1 to 50 uM measured after 48 hrs by MTT assay; type: toxicity, cell-based; conditions: dose 1-50 µM
[9] = Upregulation of BDNF expression in human SH-SY5Y cells at 10 uM incubated for 2 hrs by ELISA; type: functional
[10] = Downregulation of corticosterone release in human SH-SY5Y cells at 10 uM incubated for 2 hrs by ELISA; type: functional
[11] = tested on: SH-SY5Y; assay: Neuroprotective activity against corticosterone-induced cytotoxicity in human SH-SY5Y cells assessed as rescue of cell viability at 10 uM preincubated with compound for 24 hrs followed by corticosterone stimulation and measured after 48 hrs by MTT assay (reference value: 41%); type: functional; conditions: time 72 hrs
[12] = tested on: SH-SY5Y; assay: Neuroprotective activity against corticosterone-induced cytotoxicity in human SH-SY5Y cells assessed as rescue of cell viability at 20 uM preincubated with compound for 24 hrs followed by corticosterone stimulation and measured after 48 hrs by MTT assay (reference value: 41%); type: functional; conditions: time 72 hrs
[13] = tested on: SH-SY5Y; assay: Neuroprotective activity against corticosterone-induced cytotoxicity in human SH-SY5Y cells assessed as rescue of cell viability at 10 uM preincubated with compound for 24 hrs followed by corticosterone stimulation and measured after 48 hrs by MTT assay relative to control; type: functional; conditions: time 72 hrs
[14] = tested on: SH-SY5Y; assay: Neuroprotective activity against corticosterone-induced cytotoxicity in human SH-SY5Y cells assessed as BDNF concentration at 5 nM preincubated with compound for 2 hrs followed by corticosterone addition and measured 2 hrs after replacement with fresh media by ELISA (reference value: 5 pg/ml); type: functional
[15] = tested on: SH-SY5Y; assay: Neuroprotective activity against corticosterone-induced cytotoxicity in human SH-SY5Y cells assessed as rescue of cell viability at 5 nM preincubated with compound for 24 hrs followed by corticosterone stimulation and measured after 48 hrs by MTT assay (reference value: 41%); type: functional; conditions: time 72 hrs
[16] = Upregulation of BDNF expression in human SH-SY5Y cells at 5 nM incubated for 2 hrs by ELISA; type: functional
[17] = tested on: SH-SY5Y; assay: Cytotoxicity against human SH-SY5Y cells assessed as reduction in cell viability at 5 nM measured after 48 hrs by MTT assay; type: toxicity, cell-based; conditions: 0.005 µM
[18] = tested on: SH-SY5Y; assay: Neuroprotective activity against corticosterone-induced cytotoxicity in human SH-SY5Y cells assessed as rescue of cell viability at 20 uM preincubated with compound for 24 hrs followed by corticosterone stimulation and measured after 48 hrs by MTT assay; type: functional, cell-based; conditions: time 72.0 hrs
[19] = tested on: SH-SY5Y; assay: Inhibition of corticosterone release in human SH-SY5Y cells at 20 uM incubated for 2 hrs by ELISA; type: functional, cell-based
[20] = tested on: SH-SY5Y; assay: Neuroprotective activity against corticosterone-induced cytotoxicity in human SH-SY5Y cells assessed as […] at 20 uM preincubated with compound for 2 hrs followed by corticosterone addition and measured 2 hrs after replacement with fresh media by ELISA; type: functional, cell-based
[21] = tested on: SH-SY5Y; assay: Neuroprotective activity against corticosterone-induced cytotoxicity in human SH-SY5Y cells assessed as rescue of BDNF expression at 20 uM preincubated with compound for 2 hrs followed by corticosterone addition and measured 2 hrs after replacement with fresh media by ELISA (reference value: 5 pg/ml); type: functional, cell-based
[22] = tested on: SH-SY5Y; assay: Upregulation of BDNF expression in human SH-SY5Y cells at 20 uM incubated for 2 hrs by ELISA; type: functional, cell-based
[23] = tested on: SH-SY5Y; assay: Cytotoxicity against human SH-SY5Y cells assessed as reduction in cell viability at 20 uM measured after 48 hrs by MTT assay; type: toxicity, cell-based

Compound: CC1=C[C@H]2c3c(O)cc(C)cc3OC(C)(C)[C@@H]2CC1
- Activity [1]: 18 pg/mL
- Activity [2]: 99%
- Activity [3]: 95%
- Activity [4]: Non-Toxic
- Activity [5]: 79%
- Activity [6]: 90%
- Activity [7]: 7 pg/mL
- Activity [8]: Non-Toxic
- Activity [9]: 21 pg/mL
- Activity [10]: 0.22 pg/mL
- Activity [11]: 96%
- Activity [12]: 97%
- Activity [13]: 89%

Compound: O=c1cc(-c2ccccc2)oc2c(O)c(O)ccc12 [7,8-DIHYDROXYFLAVONE]
- Activity [14]: 21 pg/mL
- Activity [15]: 86%
- Activity [16]: 19 pg/mL
- Activity [17]: Non-Toxic

Compound: CC1=C[C@@H]2c3c(O)cc(C)cc3OC(C)(C)[C@H]2CC1
- Activity [1]: 25 pg/mL
- Activity [2]: 104%
- Activity [3]: 102%
- Activity [4]: Non-Toxic
- Activity [5]: 83%
- Activity [6]: 98%
- Activity [7]: 5 pg/mL
- Activity [8]: Non-Toxic
- Activity [9]: 29 pg/mL
- Activity [10]: 0.43 pg/mL
- Activity [11]: 99%
- Activity [12]: 101%
- Activity [13]: 92%

Compound: C=C(C)[C@@H]1CCC(C)=C[C@H]1c1c(O)cc(CCCCC)cc1O [CANNABIDIOL]
- Activity [18]: Active
- inhibition [19]: inactive
- Activity [20]: inactive
- Activity [21]: inactive
- Activity [22]: inactive
- Activity [23]: Non-Toxic
